Type in all cases: cell-based
The test system of experiment [1] is Escherichia coli (strain DH5α). Conditions: DH5α. Put shortly: (§1)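 Broth microdilution MIC in LB; overnight cultures diluted to OD600 0.001 and mixed 1:1 with ⅔-serially diluted samples (stock 1 mg mL^−1 in H2O), 37° C for 18-24 h. MTT (0.1%) added; MIC read by eye as lowest concentration inhibiting visible growth (yellow).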
Experiment [2] relates to Bacillus subtilis (strain BR151). The settings on record: strain BR151. Put shortly:
as §1

For experiment [3], the system named is Pseudomonas aeruginosa (strain PA01). The experiment in a line: microbe, parasite or virus in culture. Conditions: strain. Put shortly: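 P. aeruginosa PAO1 grown overnight in LB, diluted to OD600 0.001 and mixed with ⅔-step peptide dilutions, then incubated at 37 °C for 18–24 h. After MTT staining, the lowest concentration with no visible growth was read by eye as the MIC.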

Converted amounts (≈) assume the structure as drawn. Positions of bridges follow the written chain, without caps; N, C: chain ends. Non-standard residues stand in square brackets, D forms with d. Residues, ends and D or L forms follow the SMILES beside them. Groups on a side chain read outwards from the residue. Chains are numbered I, II in the order given. Dab = NCC[C@H](N)C(=O)O

As to `CC(C)C[C@H](NC(=O)[C@H](CCN)NC(=O)[C@H](CCCCNC(=O)[C@H](CC(C)C)NC(=O)[C@H](CCN)NC(=O)[C@H](CCCCNC(=O)[C@H](CC(C)C)NC(=O)[C@H](CCN)NC(=O)[C@H](CCCCNC(=O)[C@H](CC(C)C)NC(=O)[C@@H](N)CCN)NC(=O)[C@H](CC(C)C)NC(=O)[C@@H](N)CCN)NC(=O)[C@H](CC(C)C)NC(=O)[C@H](CCN)NC(=O)[C@H](CCCCNC(=O)[C@H](CC(C)C)NC(=O)[C@@H](N)CCN)NC(=O)[C@H](CC(C)C)NC(=O)[C@@H](N)CCN)NC(=O)[C@H](CC(C)C)NC(=O)[C@H](CCN)NC(=O)[C@H](CCCCNC(=O)[C@H](CC(C)C)NC(=O)[C@H](CCN)NC(=O)[C@H](CCCCNC(=O)[C@H](CC(C)C)NC(=O)[C@@H](N)CCN)NC(=O)[C@H](CC(C)C)NC(=O)[C@@H](N)CCN)NC(=O)[C@H](CC(C)C)NC(=O)[C@H](CCN)NC(=O)[C@H](CCCCNC(=O)[C@H](CC(C)C)NC(=O)[C@@H](N)CCN)NC(=O)[C@H](CC(C)C)NC(=O)[C@@H](N)CCN)C(N)=O` [MSt-200, (DabL)8(KDabL)4(KDabL)2(KDabL)] (I: H-[Dab]LK([Leu-Dab])[Dab]LK[Dab]LK[Dab]L-NH2 / II: H-[Dab]LK([Leu-Dab])[Dab]LK[Dab]L / III: H-[Dab]LK([Leu-Dab])[Dab]L / IV: H-[Dab]LK([Leu-Dab])[Dab]L; amide I:6-IV:C, I:9-II:C, II:6-III:C; N-terminus assumed), the “MIC E. coli DH5α” value in experiment [1] was found to be 2 µg/mL (≈ 0.486 µM). Besides, the “MIC B. subtilis BR151” value in experiment [2] was found to be 2 µg/mL (≈ 0.486 µM). For the same compound, the “MIC P. aeruginosa PAO1” value in experiment [3] was found to be 3 µg/mL (≈ 0.729 µM).

`CC(C)C[C@H](NC(=O)[C@H](CCN)NC(=O)[C@H](CCCCNC(=O)[C@H](Cc1c[nH]c2ccccc12)NC(=O)[C@H](CCN)NC(=O)[C@H](CCCCNC(=O)[C@H](CC(C)C)NC(=O)[C@@H](N)CCN)NC(=O)[C@H](CC(C)C)NC(=O)[C@@H](N)CCN)NC(=O)[C@H](Cc1c[nH]c2ccccc12)NC(=O)[C@H](CCN)NC(=O)[C@H](CCCCNC(=O)[C@H](CC(C)C)NC(=O)[C@@H](N)CCN)NC(=O)[C@H](CC(C)C)NC(=O)[C@@H](N)CCN)C(=O)NCCCC[C@H](NC(=O)[C@H](CC(C)C)NC(=O)[C@H](CCN)NC(=O)[C@H](CCCCNC(=O)[C@H](Cc1c[nH]c2ccccc12)NC(=O)[C@H](CCN)NC(=O)[C@H](CCCCNC(=O)[C@H](CC(C)C)NC(=O)[C@@H](N)CCN)NC(=O)[C@H](CC(C)C)NC(=O)[C@@H](N)CCN)NC(=O)[C@H](Cc1c[nH]c2ccccc12)NC(=O)[C@H](CCN)NC(=O)[C@H](CCCCNC(=O)[C@H](CC(C)C)NC(=O)[C@@H](N)CCN)NC(=O)[C@H](CC(C)C)NC(=O)[C@@H](N)CCN)C(=O)N[C@@H](CCN)C(=O)N[C@@H](Cc1c[nH]c2ccccc12)C(N)=O` [MSt-202, (DabL)8(KDabW)4(KDabL)2(KDabW)] (I: H-[Dab]LK([Leu-Dab])[Dab]WK[Dab]LK[Dab]W-NH2 / II: H-[Dab]LK([Leu-Dab])[Dab]WK[Dab]L / III: H-[Dab]LK([Leu-Dab])[Dab]W / IV: H-[Dab]LK([Leu-Dab])[Dab]W; amide I:6-IV:C, I:9-II:C, II:6-III:C; N-terminus assumed): in experiment [1], the “MIC E. coli DH5α” value came out at 1 µg/mL (≈ 0.223 µM). In addition, the “MIC B. subtilis BR151” value in experiment [2] was 1 µg/mL (≈ 0.223 µM). For the same compound, the “MIC P. aeruginosa PAO1” value in experiment [3] stood at 2 µg/mL (≈ 0.447 µM).

For `CC(C)C[C@H](NC(=O)[C@H](CCN)NC(=O)[C@H](CCCCNC(=O)[C@H](CC(C)C)NC(=O)[C@@H](N)CCN)NC(=O)[C@H](CC(C)C)NC(=O)[C@@H](N)CCN)C(=O)NCCCC[C@H](NC(=O)[C@H](CC(C)C)NC(=O)[C@H](CCN)NC(=O)[C@H](CCCCNC(=O)[C@H](CC(C)C)NC(=O)[C@@H](N)CCN)NC(=O)[C@H](CC(C)C)NC(=O)[C@@H](N)CCN)C(=O)N[C@@H](CCN)C(=O)N[C@@H](Cc1c[nH]c2ccccc12)C(=O)NCCCC[C@H](NC(=O)[C@H](Cc1c[nH]c2ccccc12)NC(=O)[C@H](CCN)NC(=O)[C@H](CCCCNC(=O)[C@H](CC(C)C)NC(=O)[C@H](CCN)NC(=O)[C@H](CCCCNC(=O)[C@H](CC(C)C)NC(=O)[C@@H](N)CCN)NC(=O)[C@H](CC(C)C)NC(=O)[C@@H](N)CCN)NC(=O)[C@H](CC(C)C)NC(=O)[C@H](CCN)NC(=O)[C@H](CCCCNC(=O)[C@H](CC(C)C)NC(=O)[C@@H](N)CCN)NC(=O)[C@H](CC(C)C)NC(=O)[C@@H](N)CCN)C(=O)N[C@@H](CCN)C(=O)N[C@@H](Cc1c[nH]c2ccccc12)C(N)=O` [MSt-203, (DabL)8(KDabL)4(KDabW)2(KDabW)] (I: H-[Dab]LK([Leu-Dab])[Dab]LK[Dab]WK[Dab]W-NH2 / II: H-[Dab]LK([Leu-Dab])[Dab]LK[Dab]W / III: H-[Dab]LK([Leu-Dab])[Dab]L / IV: H-[Dab]LK([Leu-Dab])[Dab]L; amide I:6-IV:C, I:9-II:C, II:6-III:C; N-terminus assumed), the “MIC E. coli DH5α” value in experiment [1] is 2 µg/mL (≈ 0.462 µM). Moreover, in experiment [2], the “MIC B. subtilis BR151” value stood at 2 µg/mL (≈ 0.462 µM). Further, in experiment [3], the “MIC P. aeruginosa PAO1” value was found to be 2 µg/mL (≈ 0.462 µM).

With `CC(C)C[C@H](NC(=O)[C@@H](N)CCN)C(=O)NCCCC[C@H](NC(=O)[C@H](CC(C)C)NC(=O)[C@@H](N)CCN)C(=O)N[C@@H](CCN)C(=O)N[C@@H](Cc1c[nH]c2ccccc12)C(=O)NCCCC[C@H](NC(=O)[C@H](Cc1c[nH]c2ccccc12)NC(=O)[C@H](CCN)NC(=O)[C@H](CCCCNC(=O)[C@H](CC(C)C)NC(=O)[C@@H](N)CCN)NC(=O)[C@H](CC(C)C)NC(=O)[C@@H](N)CCN)C(=O)N[C@@H](CCN)C(=O)N[C@@H](Cc1c[nH]c2ccccc12)C(=O)NCCCC[C@H](NC(=O)[C@H](Cc1c[nH]c2ccccc12)NC(=O)[C@H](CCN)NC(=O)[C@H](CCCCNC(=O)[C@H](Cc1c[nH]c2ccccc12)NC(=O)[C@H](CCN)NC(=O)[C@H](CCCCNC(=O)[C@H](CC(C)C)NC(=O)[C@@H](N)CCN)NC(=O)[C@H](CC(C)C)NC(=O)[C@@H](N)CCN)NC(=O)[C@H](Cc1c[nH]c2ccccc12)NC(=O)[C@H](CCN)NC(=O)[C@H](CCCCNC(=O)[C@H](CC(C)C)NC(=O)[C@@H](N)CCN)NC(=O)[C@H](CC(C)C)NC(=O)[C@@H](N)CCN)C(=O)N[C@@H](CCN)C(=O)N[C@@H](C)C(N)=O` [MSt-205, (DabL)8(KDabW)4(KDabW)2(KDabA)] (I: H-[Dab]LK([Leu-Dab])[Dab]WK[Dab]WK[Dab]A-NH2 / II: H-[Dab]LK([Leu-Dab])[Dab]WK[Dab]W / III: H-[Dab]LK([Leu-Dab])[Dab]W / IV: H-[Dab]LK([Leu-Dab])[Dab]W; amide I:6-IV:C, I:9-II:C, II:6-III:C; N-terminus assumed), the “MIC E. coli DH5α” value in experiment [1] stood at 2 µg/mL (≈ 0.443 µM). The “MIC B. subtilis BR151” value in experiment [2] amounted to 2 µg/mL (≈ 0.443 µM). For the same compound, in experiment [3], the “MIC P. aeruginosa PAO1” value came to 3 µg/mL (≈ 0.665 µM).

For the compound `CC(C)C[C@H](NC(=O)[C@@H](N)CCN)C(=O)NCCCC[C@H](NC(=O)[C@H](CC(C)C)NC(=O)[C@@H](N)CCN)C(=O)N[C@@H](CCN)C(=O)N[C@@H](Cc1c[nH]c2ccccc12)C(=O)NCCCC[C@H](NC(=O)[C@H](Cc1c[nH]c2ccccc12)NC(=O)[C@H](CCN)NC(=O)[C@H](CCCCNC(=O)[C@H](CC(C)C)NC(=O)[C@@H](N)CCN)NC(=O)[C@H](CC(C)C)NC(=O)[C@@H](N)CCN)C(=O)N[C@@H](CCN)C(=O)N[C@@H](C)C(=O)NCCCC[C@H](NC(=O)[C@H](C)NC(=O)[C@H](CCN)NC(=O)[C@H](CCCCNC(=O)[C@H](Cc1c[nH]c2ccccc12)NC(=O)[C@H](CCN)NC(=O)[C@H](CCCCNC(=O)[C@H](CC(C)C)NC(=O)[C@@H](N)CCN)NC(=O)[C@H](CC(C)C)NC(=O)[C@@H](N)CCN)NC(=O)[C@H](Cc1c[nH]c2ccccc12)NC(=O)[C@H](CCN)NC(=O)[C@H](CCCCNC(=O)[C@H](CC(C)C)NC(=O)[C@@H](N)CCN)NC(=O)[C@H](CC(C)C)NC(=O)[C@@H](N)CCN)C(=O)N[C@@H](CCN)C(=O)N[C@@H](Cc1c[nH]c2ccccc12)C(N)=O` [MSt-206, (DabL)8(KDabW)4(KDabA)2(KDabW)] (I: H-[Dab]LK([Leu-Dab])[Dab]WK[Dab]AK[Dab]W-NH2 / II: H-[Dab]LK([Leu-Dab])[Dab]WK[Dab]A / III: H-[Dab]LK([Leu-Dab])[Dab]W / IV: H-[Dab]LK([Leu-Dab])[Dab]W; amide I:6-IV:C, I:9-II:C, II:6-III:C; N-terminus assumed), the “MIC E. coli DH5α” value in experiment [1] came out at 2 µg/mL (≈ 0.455 µM). Moreover, the “MIC B. subtilis BR151” value in experiment [2] worked out at 2 µg/mL (≈ 0.455 µM). Moreover, the “MIC P. aeruginosa PAO1” value in experiment [3] was 3 µg/mL (≈ 0.683 µM).

For `CC(C)C[C@H](NC(=O)[C@@H](N)CCN)C(=O)NCCCC[C@H](NC(=O)[C@H](CC(C)C)NC(=O)[C@@H](N)CCN)C(=O)N[C@@H](CCN)C(=O)N[C@@H](C)C(=O)NCCCC[C@H](NC(=O)[C@H](C)NC(=O)[C@H](CCN)NC(=O)[C@H](CCCCNC(=O)[C@H](CC(C)C)NC(=O)[C@@H](N)CCN)NC(=O)[C@H](CC(C)C)NC(=O)[C@@H](N)CCN)C(=O)N[C@@H](CCN)C(=O)N[C@@H](Cc1c[nH]c2ccccc12)C(=O)NCCCC[C@H](NC(=O)[C@H](Cc1c[nH]c2ccccc12)NC(=O)[C@H](CCN)NC(=O)[C@H](CCCCNC(=O)[C@H](C)NC(=O)[C@H](CCN)NC(=O)[C@H](CCCCNC(=O)[C@H](CC(C)C)NC(=O)[C@@H](N)CCN)NC(=O)[C@H](CC(C)C)NC(=O)[C@@H](N)CCN)NC(=O)[C@H](C)NC(=O)[C@H](CCN)NC(=O)[C@H](CCCCNC(=O)[C@H](CC(C)C)NC(=O)[C@@H](N)CCN)NC(=O)[C@H](CC(C)C)NC(=O)[C@@H](N)CCN)C(=O)N[C@@H](CCN)C(=O)N[C@@H](Cc1c[nH]c2ccccc12)C(N)=O` [MSt-207, (DabL)8(KDabA)4(KDabW)2(KDabW)] (I: H-[Dab]LK([Leu-Dab])[Dab]AK[Dab]WK[Dab]W-NH2 / II: H-[Dab]LK([Leu-Dab])[Dab]AK[Dab]W / III: H-[Dab]LK([Leu-Dab])[Dab]A / IV: H-[Dab]LK([Leu-Dab])[Dab]A; amide I:6-IV:C, I:9-II:C, II:6-III:C; N-terminus assumed), in experiment [1], the “MIC E. coli DH5α” value was determined as 21 µg/mL (≈ 5.04 µM). For the same compound, the “MIC B. subtilis BR151” value in experiment [2] turned out to be 7 µg/mL (≈ 1.68 µM). Also, the “MIC P. aeruginosa PAO1” value in experiment [3] is 8 µg/mL (≈ 1.92 µM).

Source of the values: patent US10336792B2, “Antimicrobial peptide dendrimers” (priority 2014, dated 2019).
